Results reported in patent US20170340584A1 (priority 2014, published 2017).

Key:
[1] = Scanning electron microscope (SEM) analysis, particle size; format: physicochemical
From the text: For reference, an analysis instrument and analysis conditions are as follows. (1) Analysis instrument: HITACHI (S-2700), Japan (2) Electron gun: Tungsten filament type (3) Resolution: 4.0 nm (4) Accelerating voltage: 15.0 kV.

[2] = Glucose tolerance test (GTT) in high-fat diet mice; format: in vivo, mice (C57BL/6); conditions: for Glucose level (mg/dl), Mean: GTT, high-fat diet mice
Description: (§1) Using 8-week-old male mice (C57BL/6) (purchased from CoreTech), anti-diabetic candidate materials were evaluated using a GTT (Glucose Tolerance Test) that is a typical method for diagnosis of diabetes.
(§2) Mice were housed at a temperature of 22±2° C. and a relative humidity of 55-60% with 12-hr light/12-hr dark cycles. Five animals were allotted to each group, and mice from the same mother were grouped into one group, because male mice tend to fight together.
(§3) As feed, high-fat diet (60% of calories from fat; Research Diet Inc., New Brunswick, N.J.) and water were fed ad libitum for 10 weeks. Herein, the water fed contained the samples prepared in Examples 1-2 (3), 2-1, 2-4-1, 2-4-2 and 2-5. As a positive control, metformin (M-072, Sigma) (250 mg/kg) was used, and as a control, the samples prepared in Comparative Examples 1-1, 2-3-2, 2-5-1, 2-5-2 and 2-6 were used.
(§4) For reference, each of the samples prepared in Examples 2-4-1, 2-4-2 and 2-5 was set to the amount to be taken by an adult (60 kg) for 3 days, and the amount was converted into a mouse dose (12-fold/kg, see the US NIH guidance), thereby preparing animal feed. Namely, the amount to be taken by an adult (60 kg) for 3 days is 180-day dose/kg, which corresponds to 15-day dose/kg for mice. Thus, the amount corresponds to 750-day dose/mouse (20 g), because the average weight of mice is about 20 g. Thus, one mouse was allowed to take 1/750 of the prepared sample each day.
(§5) In addition, each of the samples prepared in Examples 1-2 (3) and 2-1 was set to the amount to be taken by an adult (60 kg) for 2 days, and the amount was converted into a mouse dose (12-fold/kg, see the US NIH guidance), thereby preparing animal feed. Namely, the amount to be taken by an adult (60 kg) for 2 days is 120-day dose/kg, which corresponds to 10-day dose/kg for mice. Thus, the amount corresponds to 500-day dose/mouse (20 g), because the average weight of mice is about 20 g. Thus, one mouse was allowed to take 1/500 of the prepared sample each day.
At 8 weeks of high-fat diet feeding, a glucose tolerance test (GTT) was performed. For 8 hours for the test, mice were fasted. Then, blood was sampled from the tail vein, and initial blood glucose levels were measured with a blood glucose meter (AUTO-CHEK, Diatech Korea). Then, glucose was administered intraperitoneally to the mice at a concentration of 1 g/kg, and after 30 min, 60 min, 90 min and 120 min, blood was sampled from the mice, followed by measurement of blood glucose levels (each group consisting of five animals).
(§6) Meanwhile, experimental analysis results were expressed as mean±S.E.M., and the significance between test groups was statistically processed using Student T-TEST, and then the significance was verified at *P<0.05.

[3] = Thermogravimetric analysis (TGA); format: physicochemical; conditions: first-order differentiation of TGA; N2, 20° C./min
Description: For reference, an analysis instrument and analysis conditions are as follows. (1) Analysis instrument: TGA 7 (Perkin-Elmer) (2) Atmosphere: N2 gas (3) Heating rate: 20° C./min (4) Range: 50 to 600° C.

[4] = Blood biochemistry (triglyceride, AST, ALT) in high-fat diet mice; format: in vivo, mice (C57BL/6)
Description: as §1, §3
In blood biochemistry, insulin (AKRIN-011T, Shibayagi, Japan), glucose (AM202, Asan Pharmaceutical Co., Ltd., Korea), triglyceride (AM157, Asan Pharmaceutical Co., Ltd.), total cholesterol (AM202, Asan Pharmaceutical Co., Ltd.), AST and ALT (Asan Pharmaceutical Co., Ltd.) were analyzed using enzymatic assay kits.
(§7) At 10 weeks of high-fat diet feeding, the mice were sacrificed by cervical dislocation to obtain serum. For histological examination, the liver, white adipose tissue (WAT), brown adipose tissue (BAT) and kidney were fixed with formalin (50-00-0, Junsei, Japan), and the remaining organs were stored at −70° C. The blood sampled from the heart was coagulated to obtain serum which was then stored at −70° C.
as §6

[5] = test system: liver, white adipose tissue (WAT), brown adipose tissue (BAT) and kidney; assay: Histological examination of high-fat diet mice; format: in vivo, mice (C57BL/6); conditions: 10 weeks of high-fat diet feeding
Description: as §7
For histological examination, the major organs and adipose were fixed in 4% neutral buffered formalin and embedded in paraffin blocks, and the paraffin blocks were sectioned at 5 μm and stained with hymatoxylin (MHS-16, Sigma-Aldrich, USA) and eosin (HT110116, Sigma-Aldrich). The prepared tissue samples were mounted in glycerin gel mounting media (SP15-100, Fisher Scientific, USA), covered with cover glass, and observed with a microscope (IX71, OLYMPUS, USA). The tissue was imaged with the camera equipped in the microscope.

[6] = Body weight and body weight gain of high-fat diet mice; format: in vivo, mice (C57BL/6); conditions: sample in drinking water, metformin 250 mg/kg
Description: as §1, §2, §3, §4, §5
The diet intake and the body weight gain were measured weekly for 8 weeks. The body weight and the diet intake were measured immediately before first drug administration, and then measured at one-week intervals.
as §6

Average particle size [1]: 190.84 μm
Median particle size [1]: 122.47 μm
Final decomposition temperature [3]: 396 °C
First decomposition temperature [3]: 359 °C
Compound: NCCS(=O)(=O)O [DT15, modified taurine]
Glucose level (mg/dl), Mean ([2]; 0 min): 121.25 mg/dL
Glucose level (mg/dl), Mean ([2]; 30 min): 335.25 mg/dL
Glucose level (mg/dl), Mean ([2]; 60 min): 295.25 mg/dL
Glucose level (mg/dl), Mean ([2]; 90 min): 193.75 mg/dL
Glucose level (mg/dl), Mean ([2]; 120 min): 126.25 mg/dL
Fasting glucose level ([2]; at 8 weeks of high-fat diet feeding, 8 hours fasted): lower than that of the mice administered with high-fat diet (HFD), and were similar to the blood glucose levels of normal mice
Glucose control ability in GTT ([2]; at 8 weeks of high-fat diet feeding, glucose 1 g/kg intraperitoneally, 30-120 min): significantly higher than that of the group administered with HFD alone
ALT level [4]: lower than those of DT19
AST level [4]: lower than those of DT19
Triglyceride level [4]: significantly lower than that of DT19 (taurine)
ALT level (IU/L), Mean ([4]; blood): 14.02 IU/L
AST level (IU/L), Mean ([4]; blood): 98.96 IU/L
Triglyceride level (mg/dl), Mean ([4]; blood): 53.62 mg/dL
Accumulation of adipose in brown adipose tissue [5]: decreased
Development of fatty liver [5]: decreased
Nephrotoxicity ([5]; kidney tissue): did not appear
Body weight gain, Mean ([6]; 1 week): 2.65 g
Body weight, Mean ([6]; 1 week): 20.30 g
Body weight gain, Mean ([6]; 2 weeks): 4.40 g
Body weight, Mean ([6]; 2 weeks): 22.05 g
Body weight gain, Mean ([6]; 3 weeks): 6.28 g
Body weight, Mean ([6]; 3 weeks): 23.93 g
Body weight gain, Mean ([6]; 4 weeks): 7.53 g
Body weight, Mean ([6]; 4 weeks): 25.18 g
Body weight gain, Mean ([6]; 5 weeks): 8.38 g
Body weight, Mean ([6]; 5 weeks): 26.03 g
Body weight gain, Mean ([6]; 6 weeks): 10.25 g
Body weight, Mean ([6]; 6 weeks): 27.90 g
Body weight gain, Mean ([6]; 7 weeks): 11.10 g
Body weight, Mean ([6]; 7 weeks): 28.75 g
Body weight, Mean ([6]; 8 weeks): 29.23 g
Body weight, Mean ([6]; before administration): 17.65 g
